From patent US6887879B2, “Pharmaceutical combination of antiviral agents” (priority 1999, dated 2005)
Where two headings read alike, the source gives them in different places.

Tests used:
[1] = target: T1, wt HIV-1 RT (Human immunodeficiency virus type 1 group M subtype B, UniProt P04585); assay: Chain elongation/termination assay; assay type: biochemical; settings: for chain termination / full-length products, in words: HIV-PBS template, dPR primer, raising inhibitor concentration
T1 construct: Wild type (wt) version of recombinant HIV-1 RT were expressed with a histidine tag; histidine tag; made in house; host or cells: E. coli
Procedure: RT inhibition assay. The inhibition of HIV-1 RT RNA dependent DNA polymerase activity of DXG-TP was assessed under steady-state enzymatic kinetics by employing homopolymeric RNA templates/DNA primers (T/P) and a heteropolymeric RNA template/DNA primer. The heteropolymeric RNA template contains the HIV-1 primer binding sequence, US and R regions (designated as HIV-PBS). […] The oligodeoxynucleotide primer (dPR) is an 18-mer (5′-[…]-3′) which is complementary to the HIV-1 primer binding sequence. […] Inhibition of dNTP incorporation/chain termination. […] HIV-PBS RNA template and dPR DNA primer were used in this system. The RT reactions were performed in […] containing 50 mM Tris (pH 7.8), 75 mM KCl, 10 mM MgCl2, 100 μM of dNTPs. […] The reactions were allowed to proceed at 37° C. for 60 min in the presence or absence of inhibitors. The transcribed DNA products were separated on a 5% denaturing polyacrylamide gel and visualized by exposure to X-ray film.
The chain elongation/termination assay provides a method to directly visualize the products of incorporation of dideoxynucleotide monophosphates into nascent DNA by monitoring the reaction products using polyacrylamide gel electrophoresis. The experiment was performed using wt HIV-1 RT, and HIV-PBS heteropolymeric template, and [^32p]ATP labeled dPR primer in the presence of various concentrations of RT inhibitor. […] As comparison, NNRTI nevirapine was also used in the assay.

[2] = target: T1, wt HIV-1 RT; assay: RT inhibition assay, RNA dependent DNA polymerase activity; assay type: biochemical
Procedure: Wild type (wt) version of recombinant HIV-1 RT were expressed with a histidine tag in an E. coli protein expression system.
RT inhibition assay. The inhibition of HIV-1 RT RNA dependent DNA polymerase activity of DXG-TP was assessed under steady-state enzymatic kinetics by employing homopolymeric RNA templates/DNA primers (T/P) and a heteropolymeric RNA template/DNA primer. The heteropolymeric RNA template contains the HIV-1 primer binding sequence, US and R regions (designated as HIV-PBS). […] The oligodeoxynucleotide primer (dPR) is an 18-mer (5′-[…]-3′) which is complementary to the HIV-1 primer binding sequence. […] The reverse transcription reaction contained final concentrations of 50 mM Tris-HCl, pH 7.8, 60 mM KCl, 10 mM MgCl2, 0.1 U/ml homopolymeric T/P and 5 μM [^3H]dNTP substrate or 25 nM HIV-PBS/dPR and 5 μM each of dTTP, dCTP, dGTP and [-^32P]dATP in […]. […] Inhibition of dNTP incorporation/chain termination. The effect of DXG-TP on RT activity was also assessed using the chain termination/dNTP incorporation assay in which inhibition of nascent DNA synthesis (chain termination) was monitored based upon cDNA synthesis as previously described (Arts et al., 1993; J. Biol. Hem. 269:14672-14680 and Gu et al., 1995, Proc. Natl. Acad. Sci. USA 92:2760-2764). HIV-PBS RNA template and dPR DNA primer were used in this system. The RT reactions were performed in […] containing 50 mM Tris (pH 7.8), 75 mM KCl, 10 mM MgCl2, 100 μM of dNTPs. The HIV-PBS RNA template (50 nM) and [−^32P]-ATP labeled oligodeoxynucleotide primer (125 nM) were included in the reaction. The mixture was first denatured at 85° C. for 2 minutes, then cooled to 55° C. for 8 min, and finally cooled to 37° C. at which time recombinant HIV RT was added (42.5 nM). The reactions were allowed to proceed at 37° C. for 60 min in the presence or absence of inhibitors. The transcribed DNA products were separated on a 5% denaturing polyacrylamide gel and visualized by exposure to X-ray film.

[3] = tested on: HIV-1 clinical isolate 4833; assay: microbe, parasite or virus in culture; assay type: cell-based
Procedure: (§1) HIV-1IIIB laboratory strain and HXB2-D recombinant of HIV-1 were kindly supplied by R. C. Gallo (Institute of Human Virology, Baltimore, Md.). […] The recombinant viruses were generated by transfection of proviral DNA into MT-4 cells with Lipofectamine using the protocol recommended by the manufacturer .(Gibco BRL, Montreal, Canada). […] Stock viruses were prepared from clarified culture supernatants by centrifugation and stored at −70° C. The viruses were titrated by limited dilution with a 4-fold serial dilution.
(§2) The population of HIV-1 in infected individual is quasispecies and the sensitivity of these different viruses found in clinical isolates to antiviral chemotherapy might be quite variable. In addition, HIV-1 isolates obtained from patients receiving long-term antiretroviral therapy might behave differently from cloned virus containing genetically engineered mutations in the RT gene. For these reasons, clinical isolates of HIV-1 from antiviral naive and drug-treated patients were assayed in PHA-stimulated CBMCs for their sensitivity to DXG and DAPD accompanied with approved antiretroviral agents. The genotype of the HIV-1 clinical isolates were determined as described above.

[4] = tested on: HIV-1 clinical isolate 4526; assay: Antiviral assay, HIV-1 clinical isolate 4526, CBMCs; assay type: cell-based; settings: Human immunodeficiency virus 1, naive
Procedure: as §1, §2

[5] = tested on: recombinant HXB2-D 10R/46I/63P/82T/84V; assay: microbe, parasite or virus in culture; assay type: cell-based, HIV-1; settings: Human immunodeficiency virus 1, HXB2, read-out: EC50 in CBMCs
Procedure: as §1

[6] = Cytotoxicity, [3H]-thymidine uptake, DU145; assay type: cell-based; settings: human, DU145 cells
Procedure: (§3) The cellular toxicity of the BCH compounds were assessed on various cells using [^3H]-thymidine uptake. The various cells, including Molt-4, HT1080, DU-145, HepG 2 and HSF, were plated at a concentration of 1-2×10^3 cells per well (96 well plates). However, PHA-stimulated PBMCs were cultured at a concentration of 4×10^4. After a 24 hr incubation period, 10-fold serial diluted compounds (10^−4 M to 10^−10 M) were added to the culture medium and the cells were further incubated for 72 hrs. [^3H]-thymidine was added during the final 18 hr incubation period. After incubation with the [^3H]-thymidine, the cells were washed once with PBS, treated with trypsin it the cells were adherent, and then resuspended in water (hypotonic lysing of cells) The cellular extract was applied directly to a Tomtec Harvester 96. Using this instrument the extracted DNA is adsorbed onto filters, washed and the incorporated [^3H]-thymidine is then counted.

[7] = Cytotoxicity, [3H]-thymidine uptake, HSF; assay type: cell-based; settings: human, human skin fibroblasts (HSF)
Procedure: as §3

[8] = Cytotoxicity, [3H]-thymidine uptake, HT-1080; assay type: cell-based; settings: human, HT-1080 cells
Procedure: as §3

[9] = tested on: HIV-1IIIB; assay: Anti-HIV-1 antiviral assay, laboratory strain HIV-1IIIB, RT activity in culture supernatants
Procedure: Most experiments were performed with a laboratory strain HIV-1III. […] The cells were incubated with virus using the indicated multiplicity of infection (MOI) for 2-3 hrs. The MOI used for each experiment was dependent upon the cell line and virus strain used, and was generally in the range of 0.005 to 0.5. For example, in assays performed using the established cell line MT-2, HIV-1IIIB at an MOI of 0.005 was used to infect cells. The unbound virus was then removed by washing the cells, followed by plating the cells into a 96-well plate. The infected cells were cultured in the presence of a serial concentrations of the test compound for 5-7 days. The anti-HIV-1 efficacy was determined by testing for HIV-1 RT activity in the cell culture supernatants. All assays were performed in duplicate and at least two independent experiments were performed. […] The susceptibilities of the HIV-1 variants to antiretroviral agents are expressed as the mean of the EC50 determinations.

[10] = Cytotoxicity, [3H]-thymidine uptake, HepG2; assay type: cell-based; settings: human, HepG2 cells
Procedure: as §3

[11] = tested on: recombinant HXB2-D 65R; assay: microbe, parasite or virus in culture; assay type: cell-based, HIV-1; settings: Human immunodeficiency virus 1, HXB2, read-out: EC50 in CBMCs
Procedure: as §1

[12] = tested on: recombinant HXB2-D 184V; assay: microbe, parasite or virus in culture; assay type: cell-based, HIV-1; settings: Human immunodeficiency virus 1, HXB2, read-out: EC50 in CBMCs
Procedure: as §1

[13] = tested on: recombinant HXB2-D 74V; assay: microbe, parasite or virus in culture; assay type: cell-based, HIV-1; settings: Human immunodeficiency virus 1, HXB2, read-out: EC50 in CBMCs
Procedure: as §1

[14] = tested on: recombinant HXB2-D 41L/215Y/184V; assay: microbe, parasite or virus in culture; assay type: cell-based, HIV-1; settings: Human immunodeficiency virus 1, HXB2, read-out: EC50 in CBMCs
Procedure: as §1

[15] = tested on: recombinant HXB2-D 41L/70R/215Y/219Q; assay: microbe, parasite or virus in culture; assay type: cell-based, HIV-1; settings: Human immunodeficiency virus 1, HXB2, read-out: EC50 in CBMCs
Procedure: as §1

[16] = template/primer poly(rA).oligo(dT)12-18, substrate dTTP

With `Nc1ccn([C@@H]2CS[C@H](COP(=O)(O)OP(=O)(O)OP(=O)(O)O)O2)c(=O)n1` [lamivudine-TP] the “chain termination / full-length products, in words” value [1] was “caused increasing chain termination but decreasing full-length products”.

With `Cc1cn([C@H]2CC[C@@H](COP(=O)(O)OP(=O)(O)OP(=O)(O)O)O2)c(=O)[nH]c1=O` [ddTTP, reference compound] the IC50 [2, 16] was 24 ± 3 nM.

In the case of `Nc1nc2c(ncn2C2COC(COP(=O)(O)OP(=O)(O)OP(=O)(O)O)O2)c(=O)[nH]1` (centres unmarked) [DXG-TP, DXG 5′-triphosphate], the “mode of RT inhibition, in words” value [2] is reported as “competition with natural substrate”, the IC50 ([2]; template/primer HIV-PBS/dPR, substrate dNTPs, each 5 μM) is reported as 62 ± 7 nM and the IC50 [2, 16] is reported as greater than 10000 nM. The IC50 ([2]; template/primer poly(rC).oligo(dG)12-15, substrate dGTP) was 12 nM, the “chain termination / full-length products, in words” value [1] was “caused increasing chain termination but decreasing full-length products” and the “inhibitory effect on RT activity by band intensity, compared, in words” value ([1]; cell-free assay) was “the same as ddGTP and AZT-TP at the same concentrations, but higher than lamivudine-TP”.

With `Cc1cn([C@H]2C[C@H](N=[N+]=[N-])[C@@H](COP(=O)(O)OP(=O)(O)OP(=O)(O)O)O2)c(=O)[nH]c1=O` [AZT-TP] the “chain termination / full-length products, in words” value [1] was “caused increasing chain termination but decreasing full-length products”.

In the case of `CC(C)(C)NC(=O)[C@@H]1C[C@@H]2CCCC[C@@H]2CN1C[C@@H](O)[C@H](Cc1ccccc1)NC(=O)[C@H](CC(N)=O)NC(=O)c1ccc2ccccc2n1` [saquinavir, reference compound], the “decreased sensitivity compared to the baseline isolate 4526” value [3] is reported as “about 20 fold”, the EC50 ([3]; Human immunodeficiency virus 1, therapy Saquinavir (48 weeks), read-out: EC50 in CBMCs) is reported as 110 nM and the EC50 [4] is reported as 6.3 nM. It also gave an EC50 [5] of 75 nM.

`Nc1ccn([C@@H]2CS[C@H](CO)O2)c(=O)n1` [lamivudine, reference compound] gave a CC50 at 72 h [6] greater than 500000 nM, a CC50 at 72 h [7] of 400000 nM and a CC50 at 72 h [8] greater than 500000 nM. The EC50 ([9]; Human immunodeficiency virus 1, Jurkat, read-out: EC50, mean values ± SD) was 530 ± 20 nM, the EC50 ([9]; Human immunodeficiency virus 1, MT2, read-out: EC50, mean values ± SD) was 91 ± 80 nM and the EC50 ([9]; Human immunodeficiency virus 1, MT4, read-out: EC50, mean values ± SD) was 56 ± 14 nM. For the same molecule, the EC50 ([9]; Human immunodeficiency virus 1, read-out: EC50, mean values ± SD) was 23 ± 11 nM, the CC50 at 72 h [10] was 350000 nM and the EC50 [11] was 360 ± 170 nM. It also gave an EC50 [12] greater than 50000 nM, an EC50 [13] of 120 ± 70 nM and an EC50 [14] greater than 50000 nM. The EC50 [15] was 62 ± 20 nM.
